Results reported in patent US6063784A, “Heteroaryloxyethylamines, method of preparation, application as medicine and pharmaceutical compositions containing them” (Societe de Conseils de Recherches et D'Applications …, priority 1996, dated 2000).

Biological target: T1, serotonergic 5-HT1A receptors (Rattus norvegicus, UniProt P19327)
T1 construct: from tissue; host or cells: cerebral cortex membranes of male Sprague Dawley rats
T1 sequence (P19327 1-422): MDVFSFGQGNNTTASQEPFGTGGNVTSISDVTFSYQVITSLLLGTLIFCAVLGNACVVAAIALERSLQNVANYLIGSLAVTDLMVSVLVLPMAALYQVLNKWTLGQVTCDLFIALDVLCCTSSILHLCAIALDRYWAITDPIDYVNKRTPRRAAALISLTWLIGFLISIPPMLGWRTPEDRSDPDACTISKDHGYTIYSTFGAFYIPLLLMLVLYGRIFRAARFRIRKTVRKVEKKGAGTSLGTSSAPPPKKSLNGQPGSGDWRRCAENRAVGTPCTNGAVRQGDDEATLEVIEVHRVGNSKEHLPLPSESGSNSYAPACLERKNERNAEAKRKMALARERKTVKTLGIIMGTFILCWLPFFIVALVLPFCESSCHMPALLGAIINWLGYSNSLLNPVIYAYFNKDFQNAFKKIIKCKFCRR
Assay: Affinity for the 5-HT1A receptor: inhibition of [3H]8-OH-DPAT binding to rat cerebral cortex membranes
Parameters: species or system rat (male Sprague Dawley)
Settings: [3H]8-OH-DPAT 1 nM, 30 min at 25° C., Tris-HCl 50 mM, pH=7.4
Procedure: The affinity of the compounds for serotonergic 5-HT1A receptors is determined by measuring the inhibition of [3H]8-hydroxy-2(di-n-propylamino)tetralin([3H]8-OH-DPAT) bound to the cerebral cortex of the rat, according to the method of Peroutka and his coworkers [(J. Neurochem., 47, 529 (1986)].
Cerebral cortices of male Sprague Dawley rats are homogenised in Tris-HCl 50 mM, pH=7.4 and centrifuged at 40,000 g for 10 min at 4° C. Pellets are resuspended in the same buffer and incubated for 10 min at 37° C., and the homogenised products are centrifuged again at 40,000 g for 10 min at 4° C.
Competitive inhibition tests of [3H]8-OH-DPAT binding are carried out three times with unlabelled competitors, with concentrations between 100 pM and 100 µM. Cerebral cortex membranes of rats (10 mg wet weight/ml) are incubated with [3H]8-OH-DPAT (1 nM) for 30 min at 25° C. in Tris-HCl 50 mM, pH=7.4 containing 4 mM of CaCl2, 10 µM of pargyline and 0.1% of ascorbic acid.
The bound [3H]8-OH-DPAT is separated from free [3H]8-OH-DPAT by immediate filtration by means of Whatman GF/B glass fibre filters using a Brandel cell recovery device. The filters are washed three times with the same buffer at 0-4° C. and their radioactivity is studied by means of a liquid scintillation spectrometer.
The specific binding is obtained by subtracting the binding determined in the presence of 1 M of 8-OH-DPAT from the total binding. The characteristics of the binding are analysed by iterative analysis of the non-linear regression by computer, using the Ligand program [Munson and Rodbard, Anal. Biochem., 107, 220 (1980)].

## CC(C)(C)C(=O)NCCCCNCCOc1cccc2cccnc12 [Compound 1, N-[4-({2-(8-quinolyloxy)ethyl}amino)butyl]tert-butanamide]
  Ki: 0.081 nM

## CC(C)(C)CC(=O)NCCCCNCCOc1cccc2cccnc12 [Compound 2]
  Ki: 0.12 nM

## O=C(NCCCCNCCOc1cccc2cccnc12)C1CCCCC1 [Compound 3, N-[4-({2-(8-quinolyloxy)ethyl}amino)butyl]cyclohexanamide]
  Ki: 0.15 nM

## CC1(C(=O)NCCCCNCCOc2cccc3cccnc23)CCCCC1 [Compound 4]
  Ki: 0.11 nM

## O=C(NCCCCNCCOc1cccc2cccnc12)c1ccccc1 [Compound 5, N-[4-({2-(8-quinolyloxy)ethyl}amino)butyl]benzamide]
  Ki: 0.055 nM

## CC(C)(C)CC(=O)NCCCCNCCOc1ccc(Cl)c2cccnc12 [Compound 6]
  Ki: 0.98 nM

## Cc1ccc2cccc(OCCNCCCCNC(=O)CC(C)(C)C)c2n1 [Compound 7]
  Ki: 0.35 nM

## O=C(NCCCCNCCOc1cccc2nccnc12)c1ccccc1 [Compound 9, N-[4-({2-(5-quinoxalyloxy)ethyl}amino)butyl]benzamide]
  Ki: 0.75 nM

## O=C(CCCCNCCOc1cccc2cccnc12)NC1CCCCC1 [Compound 11, N-cyclohexyl-5-[(2-{8-quinolyloxy}ethyl)amino]pentanamide]
  Ki: 0.072 nM

## CC(C)(C)CNC(=O)CCCCNCCOc1cccc2cccnc12 [Compound 12, N-neopentyl-5-[(2-{8-quinolyloxy}ethyl)amino]pentanamide]
  Ki: 0.09 nM

## CC(C)(C)CNC(=O)CCCCNCCOc1cccc2nccnc12 [Compound 13, N-neopentyl-5-[(2-{5-quinoxalyloxy}ethyl)amino]pentanamide]
  Ki: 0.48 nM
